Reference: patent US20240208959A1, “THIAZOLE/ISOTHIAZOLE HSD17B13 INHIBITORS AND USES THEREOF” (INIPHARM, INC., priority 2021, published 2024)

Target: T1, HSD17B13 enzyme (Homo sapiens, UniProt Q7Z5P4)
T1 construct: His; made in house; host or cells: E. coli
T1 sequence (Q7Z5P4 20-300): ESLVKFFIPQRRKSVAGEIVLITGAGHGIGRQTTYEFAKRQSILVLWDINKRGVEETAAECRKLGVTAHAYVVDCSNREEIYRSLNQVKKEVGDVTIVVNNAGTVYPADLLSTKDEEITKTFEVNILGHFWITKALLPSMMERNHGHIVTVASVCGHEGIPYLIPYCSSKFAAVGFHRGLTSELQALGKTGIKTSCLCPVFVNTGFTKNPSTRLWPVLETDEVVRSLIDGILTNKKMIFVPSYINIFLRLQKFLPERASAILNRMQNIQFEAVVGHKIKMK
Assay: LC/MS estrone detection assay: conversion of estradiol to estrone by HSD17B13
Format: biochemical
Settings: 4 μM Estradiol, 6mM NAD, 30 nM HSD17B13 enzyme (E. coli expressed His-tagged), 2 hours at 26.5° C.
Description: Example A: Estrone Detection Assay for Evaluation of HSD17β13 Activity and Identification of Inhibitors
The liquid chromatography/mass spectrometry (LC/MS) estrone detection assay monitors the conversion of estradiol to estrone by HSD17B13. This assay was undertaken in a 96wp format (Eppendorf deep well Plate 96/500) in an 80 μl reaction volume containing: 4 μM of Estradiol (E2: Cayman: #10006315), 6mM NAD (Sigma: #N0623) and 30 nM HSD17B13 enzyme (in-house: E. coli expressed His-tagged, purified, soluble protein) in a reaction containing […] potassium phosphate buffer pH 7.4, with 0.5% vehicle (DMSO). Reactions were incubated for 2 hours at 26.5° C., and estradiol (E2) conversion to estrone (E1) was quantitated by LC-MS/MS based analyte detection for both E2 and E1 using LCMS grade reagents.
Reactions were terminated by the addition of two volumes of acetonitrile (MeCN: LCMS grade: CAS #75/05/8) containing deuterated (D4)-E1 used as internal standard (Clear Synth: #CS-T-54273: 500 ng/mL final concentration). Samples were applied to pre-prepared Bond Elut-C18 extraction cartridges (3 mL: Agilent: #12102028), washed and eluted in MeCN. Eluates were dried under nitrogen and re-suspended in 60% methanol (LCMS grade methanol: CAS #67/56/1) before submission for analysis. Aqueous linearity for E2 and E1 were included for quantification.
Analysis of samples was undertaken on a XBridge BEH C18 column (Waters: #186003033) using 0.1% Diethyl Amine in MeCN (mobile phase A: DEA CAS #109-89-7) and 0.1% Diethyl Amine in milli-Q water (mobile phase B) in a 3 min gradient allowing 25% B. Analytes were detected in negative mode using MRM analysis, with E2 having a RT of 1.85 min and E1 having a RT of 2 min Activity of the enzyme, in the absence of NAD′, was used to evaluate specificity of conversion. Enzyme activity in the presence of test samples was expressed as a percentage of the uninhibited enzyme activity, and plotted versus inhibitor concentration. Non-linear regression was performed using a four-parameter logistic model and GraphPad Prism software (GraphPad Software, La Jolla, CA). All assessments were undertaken in duplicate evaluations and pooled during extraction process and subsequently injected as duplicates for LC-MS/MS analysis.

| Structure (SMILES) | IC50 [µM] |
| --- | --- |
| O=C(Nc1scnc1C(=O)NC(CO)c1ccccc1)c1ccc(O)c(Cl)c1 (stereo in doubt) [Example 6, (R)-5-(3-chloro-4-hydroxybenzamido)-N-(2-hydroxy-1-phenylethyl)thiazole-4-carboxamide] | ≤ 0.1 |
| COC(=O)C(NC(=O)c1scnc1NC(=O)c1ccc(O)c(Cl)c1)c1ccccc1 (stereo in doubt) [Example 7, methyl (R)-2-(4-(3-chloro-4-hydroxybenzamido)thiazole-5-carboxamido)-2-phenylacetate] | 0.1 to 0.5 |
| O=C(Nc1ncsc1C(=O)NC(C(=O)O)c1ccccc1)c1ccc(O)c(Cl)c1 (stereo in doubt) [Example 8, (R)-2-(4-(3-chloro-4-hydroxybenzamido)thiazole-5-carboxamido)-2-phenylacetic Acid] | 1 to 10 |
| O=C(Nc1ncsc1C(=O)NCCc1ccccc1C(F)(F)F)c1ccc(O)c(C(F)(F)F)n1 [Example 1, 4-(5-hydroxy-6-(trifluoromethyl)picolinamido)-N-(2-(trifluoromethyl)phenethyl)thiazole-5-carboxamide] | 0.1 to 0.5 |
| O=C(Nc1ncsc1C(=O)NCCc1ccccc1F)c1ccc(O)c(C(F)(F)F)n1 [Example 2, N-(2-fluorophenethyl)-4-(5-hydroxy-6-(trifluoromethyl)picolinamido)thiazole-5-carboxamide] | 0.1 to 0.5 |
| CC(C)(C)CCNC(=O)c1scnc1NC(=O)c1ccc(O)c(C(F)(F)F)n1 [Example 3, N-(3,3-dimethylbutyl)-4-(5-hydroxy-6-(trifluoromethyl)picolinamido)thiazole-5-carboxamide] | 0.5 to 1 |
| O=C(Nc1ncsc1C(=O)NCc1ccccc1C(F)(F)F)c1cc(F)c(O)c(F)c1 [Example 4, 4-(3,5-difluoro-4-hydroxybenzamido)-N-(2-(trifluoromethyl)benzyl)thiazole-5-carboxamide] | ≤ 0.1 |
| Cc1nsc(NC(=O)c2ccc(O)c(Cl)c2)c1C(=O)NCCC(C)(C)C [Example 5, 5-(3-chloro-4-hydroxybenzamido)-N-(3,3-dimethylbutyl)-3-methylisothiazole-4-carboxamide] | ≤ 0.1 |

Further lines, results first:

| IC50 [µM] | Structure (SMILES) |
| --- | --- |
| ≤ 0.1 | O=C(Nc1ncsc1C(=O)NCc1ccccc1C(F)(F)F)c1cc(F)c(O)c(Cl)c1 [Example 9, 4-(3-chloro-5-fluoro-4-hydroxybenzamido)-N-{[2-(trifluoromethyl)phenyl]methyl}-1,3-thiazole-5-carboxamide] |
| 0.1 to 0.5 | O=C(Nc1ncsc1C(=O)NCc1ccccc1F)c1cc(F)c(O)c(Cl)c1 [Example 10, 4-(3-chloro-5-fluoro-4-hydroxybenzamido)-N-(2-fluorobenzyl)thiazole-5-carboxamide] |
| 0.1 to 0.5 | O=C(Nc1ncsc1C(=O)NCc1ccccc1OC(F)(F)F)c1cc(F)c(O)c(Cl)c1 [Example 11, 4-(3-chloro-5-fluoro-4-hydroxybenzamido)-N-(2-(trifluoromethoxy)benzyl)thiazole-5-carboxamide] |
| ≤ 0.1 | COc1ccccc1CCNC(=O)c1nc(C)sc1NC(=O)c1ccc(O)c(Cl)c1 [Example 12, 5-(3-chloro-4-hydroxybenzamido)-N-(2-methoxyphenethyl)-2-methylthiazole-4-carboxamide] |
| 0.5 to 1 | O=C(Nc1scnc1C(=O)NCc1ccccc1OC(F)(F)F)c1cc(Cl)c(=O)[nH]n1 [Example 13, 5-(5-chloro-6-oxo-1,6-dihydropyridazine-3-carboxamido)-N-(2-(trifluoromethoxy)benzyl)thiazole-4-carboxamide] |
| > 10 | CC(C)c1cc(C(=O)Nc2scnc2C(=O)NCc2ccccc2OC(F)(F)F)n[nH]c1=O [Example 14, 5-(5-isopropyl-6-oxo-1,6-dihydropyridazine-3-carboxamido)-N-(2-(trifluoromethoxy)benzyl)thiazole-4-carboxamide] |
| > 10 | O=C(Nc1scnc1C(=O)NCc1ccccc1OC(F)(F)F)c1ccc(=O)[nH]n1 [Example 15, 5-(6-oxo-1,6-dihydropyridazine-3-carboxamido)-N-(2-(trifluoromethoxy)benzyl)thiazole-4-carboxamide] |
| > 10 | O=C(Nc1scnc1C(=O)NCc1ccccc1OC(F)(F)F)c1c[nH]c(=O)cn1 [Example 16, 5-(5-oxo-4,5-dihydropyrazine-2-carboxamido)-N-(2-(trifluoromethoxy)benzyl)thiazole-4-carboxamide] |
